Measurements taken from patent US11968990B2, “Creamer comprising vegetable lipids and allulose” (CJ CHEILJEDANG CORPORATION, priority 2016, dated 2024).

Key:
[1] = Body weight of C57BL/6J mice fed creamer-containing high fat diet with allulose for 8 weeks; format: in vivo; conditions: for Body weight: HFD + creamer + 5 wt % allulose (PRA), mean ± SE, in g (unit assumed)
Excerpt: (§1) 16 C57BL/6J mice (male, 4-week-old) were purchased from the Jackson Laboratory (USA) and used. The mice were allowed to adapt to the breeding environment with the lab-chow diet (Purina Co., USA) for 4 weeks. Then, the mice were divided, by using the randomized block design, into a negative control group (PR: 8 mice), in which allulose was not fed, and an experimental group (PRA: 8 mice), in which allulose was fed, and the mice were fed with diet for 8 weeks.
For the diet of the negative control group, AIN-76 diet and HFD were applied, in which creamer [“Prima”, Dongsuh Foods Corporation, Korea; raw materials: 30-38 wt % of hydrogenated vegetable lipid (hydrogenated coconut oil, hydrogenated palm oil), starch syrup (including maltose), sodium caseinate, potassium phosphate dibasic, calcium phosphate tribasic] was used as the vegetable lipid. For the diet of the experimental group, 5 wt % of sugar among the components of the diet of the negative control group were replaced with allulose (crystal allulose, 98 wt % or higher of allulose based on dry solid content, CJ Cheiljedang) and used (Table 1). All animal experiments were conducted with the approval of the Ethical Commission for Animal Experimentation, Kyungpook National University (Approval No.: KNU-2013-18).
Pair feeding was performed based on the experimental group so as to feed the same level of iso-energetic diet, and thereby the effect of calorie reduction by allulose was excluded. The diet was refrigerated at 4° C. during the breeding period. The mice were bred in individual cages under constant temperature (25±2° C.), constant humidity (50±5%), and dark-light cycles at 12 hour intervals.
Dietary intake was measured at constant time every day, and body weight was measured at constant time every week.

[2] = Fecal lipid excretion in C57BL/6J mice fed creamer-containing high fat diet with allulose for 8 weeks; format: in vivo
Excerpt: as §1
For the diet of the negative control group, AIN-76 diet and HFD were applied, in which creamer [“Prima”, Dongsuh Foods Corporation, Korea; raw materials: 30-38 wt % of hydrogenated vegetable lipid (hydrogenated coconut oil, hydrogenated palm oil), starch syrup (including maltose), sodium caseinate, potassium phosphate dibasic, calcium phosphate tribasic] was used as the vegetable lipid. […]
Among them, 200 μL each were collected for the measurement of cholesterol and free fatty acids and dried again under nitrogen gas, and those for the measurement of neutral lipid and total cholesterol were dissolved in 500 μL of ethanol. […] At the time of quantification of total cholesterol and neutral lipid, 3 mM cholic acid (sodium salt) as an emulsifier and 0.5% Triton X-100 (for removal of turbidity that occurs at the time of color development) were mixed and used.
For the measurement of total cholesterol, 10 μL of the solution dissolved in ethanol (500 μL) and the emulsifier (690 μL) were mixed, and then 800 μL of a test solution (Asan Pharmaceutical kit) for measurement applying the enzyme method of Allain et al. (1974) was mixed. For quantification of both in forms of free cholesterol (FC) and cholesterol ester (CE), CE was converted to FC and fatty acid by cholesterol esterase. […] The obtained product and H2O2 as a substrate were reacted with peroxidase, phenol, and 4-amino-antipyrine to obtain a red coloring material, and then the absorbance was measured at 500 nm. The measured value was quantified by comparing with the cholesterol standard curve. […]

[3] = experimental group (PRA) compared to negative control group (PR)

O=C(CO)C(O)C(O)C(O)CO [allulose, Allulose (D-psicose)]
Body weight ([1]; 0 week of diet): 21.47 ± 0.50 | Body weight ([1]; 8th week of diet): 27.41 ± 0.48 | Inhibitory effect against weight gain ([1]; experimental group (PRA) vs negative control (PR), from 1st week of diet, 8 weeks): significantly inhibited | Excretion of lipid as feces ([2]; allulose ingested along with the vegetable lipid in creamer): promoted | Amount of free fatty acids in the feces vs negative control [2, 3]: significantly increased | Amount of triglycerides in the feces vs negative control [2, 3]: significantly increased
